Results published in patent publication US20080261994A1, “CYCLOPROPANE COMPOUNDS AND PHARMACEUTICAL USE THEREOF” (Japan Tobacco Inc., priority 2003, published 2008).
Read-outs that look alike come from different tables or passages of the source.

Experiments:
Assay type in all cases: biochemical
[1] = target: T1, aggrecanase-1 (Homo sapiens, UniProt O75173); test: Aggrecanase-1 inhibitory action (Particle Assay, GAG release from aggrecan-containing polyacrylamide particles)
T1 sequence (O75173 213-837): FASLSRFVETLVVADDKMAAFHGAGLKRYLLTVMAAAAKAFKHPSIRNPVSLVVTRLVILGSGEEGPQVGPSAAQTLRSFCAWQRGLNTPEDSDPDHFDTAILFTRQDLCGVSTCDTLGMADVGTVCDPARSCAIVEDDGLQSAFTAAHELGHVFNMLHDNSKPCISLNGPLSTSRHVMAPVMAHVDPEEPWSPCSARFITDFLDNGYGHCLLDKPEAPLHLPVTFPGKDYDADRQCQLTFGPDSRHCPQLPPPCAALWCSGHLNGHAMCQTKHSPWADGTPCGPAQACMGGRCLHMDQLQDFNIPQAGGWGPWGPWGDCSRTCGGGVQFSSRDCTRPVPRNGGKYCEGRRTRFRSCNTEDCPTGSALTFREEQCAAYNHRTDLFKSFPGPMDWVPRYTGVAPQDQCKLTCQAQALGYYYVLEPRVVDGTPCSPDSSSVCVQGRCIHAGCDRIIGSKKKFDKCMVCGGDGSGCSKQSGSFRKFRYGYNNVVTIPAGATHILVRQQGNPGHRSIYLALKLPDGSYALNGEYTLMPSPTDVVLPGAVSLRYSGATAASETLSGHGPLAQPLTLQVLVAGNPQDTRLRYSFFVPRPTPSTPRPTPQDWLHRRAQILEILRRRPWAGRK
In short: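 Readout was dimethylmethylene blue absorbance (595 nm) of glycosaminoglycan liberated into supernatant, calibrated with whale chondroitin sulfate. Substrate was aggrecan in polyacrylamide particles, digested 15 h at 37° C in Tris-HCl; TC50 (μM) derived from inhibition relative to no-enzyme and no-inhibitor controls.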

[2] = target: T2, MMP-1 (Homo sapiens, UniProt P03956); test: MMP-1 inhibitory action (Type I collagen Activity Measurement kit, FITC-labeled collagen type I)
T2 sequence (P03956 100-469): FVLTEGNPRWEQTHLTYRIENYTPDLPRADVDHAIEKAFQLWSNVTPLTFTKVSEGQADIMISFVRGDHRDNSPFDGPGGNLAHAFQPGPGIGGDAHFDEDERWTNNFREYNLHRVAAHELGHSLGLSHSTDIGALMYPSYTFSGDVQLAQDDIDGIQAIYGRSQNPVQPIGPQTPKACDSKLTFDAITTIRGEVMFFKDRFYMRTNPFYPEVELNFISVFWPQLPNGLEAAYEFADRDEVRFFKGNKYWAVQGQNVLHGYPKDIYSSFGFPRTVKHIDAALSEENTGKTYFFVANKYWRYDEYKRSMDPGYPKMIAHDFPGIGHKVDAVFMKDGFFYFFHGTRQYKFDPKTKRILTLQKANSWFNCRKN

[3] = target: T3, Recombinant Human MMP-13 (Homo sapiens, UniProt P45452); test: MMP-13 inhibitory activity (MMP-13 specific fluorescent substrate with quencher)
T3 construct: purchased R&D systems 511-MM
In short: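 IC50 (μM) derived from % inhibition, normalised to wells without enzyme and without inhibitor, fluorescence read at 325/405 nm. Enzyme and compound preceded addition of the quenched 7-MCA…DPA substrate; Tris-HCl buffer, 25 °C for 1 h, acetic-acid stop.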

[4] = aggrecanase-1 inhibitory action, read-out: IC50 AG1 (Experimental Example 1)
[5] = MMP-1 inhibitory action, FITC-labeled collagen type I, 37° C. for 3 hr, read-out: IC50 MMP1 (Experimental Example 2)
[6] = Recombinant Human MMP-13, fluorescent substrate, 25° C. for 1 h, read-out: IC50 MMP13 (Experimental Example 3)
[7] = Experimental Example 1, read-out: IC50 AG1
[8] = Experimental Example 2, read-out: IC50 MMP1
[9] = Experimental Example 3, read-out: IC50 MMP13

| SMILES | IC50 [1, 4] [nM] | IC50 [2, 5] [nM] | IC50 [3, 6] [nM] | IC50 [1, 7] [nM] | IC50 [2, 8] [nM] | IC50 [3, 9] [nM] |
| --- | --- | --- | --- | --- | --- | --- |
| O=C(O)C1(NS(=O)(=O)c2ccc(-c3ccc(Cl)cc3)s2)CC1(CCCO)c1ccccc1 (stereo not drawn) [Example 2-227] | < 100 | ≥ 1000 | < 1000 | – | – | – |
| O=C(CCc1cccc(C2CC2(NS(=O)(=O)c2ccc(-c3ccc(Cl)cc3)s2)C(=O)O)c1)N1CCOCC1 (stereo not drawn) [Example 2-209] | < 100 | ≥ 1000 | < 100 | – | – | – |
| O=C(O)C1(NS(=O)(=O)c2ccc(-c3cc(C(F)(F)F)on3)s2)CC1(CCCO)c1ccccc1 (stereo not drawn) [Example 2-248] | < 100 | ≥ 1000 | < 1000 | – | – | – |
| O=C(O)C1(NS(=O)(=O)c2ccc(-c3ccc(Cl)cc3)s2)CC1c1ccccc1O (stereo not drawn) [Example 1-102] | < 100 | ≥ 1000 | < 1000 | – | – | – |
| O=C(O)C1(NS(=O)(=O)c2ccc(-c3ccc(Cl)cc3)cc2)CC1c1cccc(Oc2cccnc2)c1 (stereo not drawn) [Example 1-68] | < 1000 | ≥ 1000 | < 100 | – | – | – |
| O=C(O)C1(NS(=O)(=O)c2ccc(-c3ccc(Cl)cc3)cc2)CC1c1cccc(NCc2cnc[nH]2)c1 (stereo not drawn) [Example 1-90] | < 1000 | ≥ 1000 | < 100 | – | – | – |
| CC(C)OCCNC(=O)OCC1(c2ccccc2)CC1(NS(=O)(=O)c1ccc(-c2cc(C(F)(F)F)on2)s1)C(=O)O (stereo not drawn) [Example 2-308] | – | – | – | < 1000 | ≥ 1000 | < 1000 |
| CN1CCN(C(=O)Cc2cccc(C3CC3(NS(=O)(=O)c3ccc(-c4ccc(Cl)cc4)s3)C(=O)O)c2)CC1 (stereo not drawn) [Example 2-191] | < 100 | ≥ 10000 | < 100 | – | – | – |
| CC1[C@H](c2ccccc2)[C@]1(NS(=O)(=O)c1ccc(-c2ccc(Cl)cc2)s1)C(=O)O (stereo partly drawn) [Example 2-262] | < 100 | < 1000 | < 100 | – | – | – |
| O=C(NC[C@H]1CCCO1)OCC1(c2ccccc2)CC1(NS(=O)(=O)c1ccc(-c2cc(C(F)(F)F)on2)s1)C(=O)O (stereo partly drawn) [Example 2-309] | – | – | – | < 1000 | ≥ 1000 | < 1000 |
| O=C(O)C1(NS(=O)(=O)c2ccc(-c3cc(C(F)(F)F)on3)s2)CC1c1ccccc1CCO (stereo not drawn) [Example 2-240] | < 1000 | ≥ 1000 | < 1000 | – | – | – |
| CCC(=O)c1ccc(S(=O)(=O)NC2(C(=O)O)CC2c2ccccc2)s1 (stereo not drawn) [Example 2-116] | ≥ 10000 | ≥ 10000 | ≥ 10000 | – | – | – |
| Cc1nc(-c2ccc(S(=O)(=O)NC3(C(=O)O)CC3c3ccccc3)s2)co1 (stereo not drawn) [Example 2-87] | ≥ 10000 | ≥ 10000 | ≥ 1000 | – | – | – |
| Cc1nc(-c2ccc(S(=O)(=O)NC3(C(=O)O)CC3c3ccccc3)s2)c(Cl)o1 (stereo not drawn) [Example 2-88] | ≥ 10000 | ≥ 10000 | ≥ 10000 | – | – | – |
| NC(=O)OCCc1cccc(C2CC2(NS(=O)(=O)c2ccc(-c3cc(C(F)(F)F)on3)s2)C(=O)O)c1 (stereo not drawn) [Example 2-270] | – | – | – | < 100 | ≥ 1000 | < 100 |
| CN1CCN(c2ccc(C3CC3(NS(=O)(=O)c3ccc(-c4ccc(Cl)cc4)s3)C(=O)O)cc2)CC1 (stereo not drawn) [Example 2-247] | ≥ 10000 | ≥ 10000 | ≥ 10000 | – | – | – |
| O=C(O)C1(NS(=O)(=O)c2ccc(-c3ccc(Cl)cc3)s2)CC1(CCCn1cccn1)c1ccccc1 (stereo not drawn) [Example 2-273] | – | – | – | < 100 | < 1000 | < 100 |
| O=C(O)[C@@]1(NS(=O)(=O)c2ccc(-c3ccc(Cl)cc3)s2)C[C@H]1c1ccccc1 [Example 2-192] | < 1000 | ≥ 10000 | < 1000 | – | – | – |
| COC(=O)N1CC=C(c2ccc(S(=O)(=O)N[C@@]3(C(=O)O)C[C@@H]3c3ccccc3)s2)CC1 [Example 2-3, 4-[5-((1S,2R)-1-carboxy-2-phenyl-cyclopropanesulfamoyl)-thiophene-2-yl]-3,6-dihydro-2H-pyridin-1-carboxylic acid methyl ester] | ≥ 1000 | ≥ 10000 | ≥ 1000 | – | – | – |
| O=C(O)[C@]1(NS(=O)(=O)c2ccc(-c3ccc(Cl)cc3)s2)C[C@@H]1c1cccc(Br)c1 [Example 2-136] | < 1000 | ≥ 1000 | < 100 | – | – | – |
| O=C(O)C1(NS(=O)(=O)c2ccc(-c3ccc(Cl)cc3)cc2)CC1c1cccc(OCCN2CCOCC2)c1 (stereo not drawn) [Example 1-74] | < 1000 | ≥ 1000 | < 100 | – | – | – |
| O=C(O)C1(NS(=O)(=O)c2ccc(-c3ccc(Cl)cc3)s2)CC1c1cccc(Oc2cccnc2)c1 (stereo not drawn) [Example 1-88] | < 100 | ≥ 10000 | < 1000 | – | – | – |
| O=C(O)C1(NS(=O)(=O)c2ccc(-c3ccc(Cl)cc3)s2)CC1c1cccc(CO)c1 (stereo not drawn) [Example 1-134] | < 100 | ≥ 1000 | < 100 | – | – | – |
| CC(=O)N1Cc2ccccc2C2(C1)CC2(NS(=O)(=O)c1ccc(-c2ccc(Cl)cc2)s1)C(=O)O (stereo not drawn) [Example 2-207] | < 1000 | ≥ 10000 | < 1000 | – | – | – |
| CN(C)C(=O)Cc1ccccc1C1CC1(NS(=O)(=O)c1ccc(-c2ccc(Cl)cc2)s1)C(=O)O (stereo not drawn) [Example 2-204] | < 100 | ≥ 10000 | < 1000 | – | – | – |

The remaining lines, values ahead:

| IC50 [1, 4] [nM] | IC50 [2, 5] [nM] | IC50 [3, 6] [nM] | IC50 [1, 7] [nM] | IC50 [2, 8] [nM] | IC50 [3, 9] [nM] | SMILES |
| --- | --- | --- | --- | --- | --- | --- |
| – | – | – | ≥ 1000 | ≥ 10000 | ≥ 1000 | O=C(O)C1(NS(=O)(=O)c2ccc(-c3cc(C(F)(F)F)on3)o2)C2CCCc3ccccc3C21 (stereo not drawn) [Example 2-373] |
| – | – | – | < 1000 | ≥ 10000 | < 1000 | COCC(=O)NCC1(c2ccccc2)CC1(NS(=O)(=O)c1ccc(-c2ccc(Cl)cc2)s1)C(=O)O (stereo not drawn) [Example 2-398] |
| – | – | – | < 1000 | ≥ 1000 | < 1000 | C[C@]1(c2ccccc2)C[C@@]1(NS(=O)(=O)c1ccc(-c2ccc(F)cn2)s1)C(=O)O [Example 2-416] |
| – | – | – | < 1000 | ≥ 1000 | < 1000 | C[C@]1(c2ccccc2)C[C@@]1(NS(=O)(=O)c1ccc(-c2ccc(CO)c(F)c2)s1)C(=O)O [Example 2-594] |
| – | – | – | ≥ 1000 | ≥ 1000 | < 1000 | CC1C(c2ccccc2)C1(NS(=O)(=O)c1ccc(-c2cccc(CN3CCOCC3)c2)s1)C(=O)O (stereo not drawn) [Example 2-540] |
| – | – | – | < 1000 | < 1000 | < 100 | C[C@]1(c2ccccc2)C[C@@]1(NS(=O)(=O)c1ccc(-c2cccc(N)c2)s1)C(=O)O [Example 2-452] |
| – | – | – | < 100 | < 1000 | < 100 | CC1[C@H](c2ccccc2)[C@]1(NS(=O)(=O)c1ccc(-n2cc(C(F)(F)F)cn2)s1)C(=O)O (stereo partly drawn) [Example 2-577] |
| – | – | – | < 1000 | ≥ 1000 | < 1000 | CN(C)C(=O)NCC1(c2ccccc2)CC1(NS(=O)(=O)c1ccc(-c2ccc(Cl)cc2)s1)C(=O)O (stereo not drawn) [Example 2-378] |
| – | – | – | < 1000 | ≥ 1000 | < 100 | CC1[C@H](c2ccccc2)[C@]1(NS(=O)(=O)N1CCN(c2ccc(Cl)cc2F)CC1)C(=O)O (stereo partly drawn) [Example 2-460] |
| – | – | – | < 100 | < 1000 | < 100 | CC1[C@H](c2ccccc2)[C@]1(NS(=O)(=O)c1ccc(-c2ccc(Cl)c(CO)c2)s1)C(=O)O (stereo partly drawn) [Example 2-565] |
| – | – | – | ≥ 1000 | ≥ 10000 | ≥ 1000 | O=C(O)[C@]1(NS(=O)(=O)c2ccc(-c3cc(C(F)(F)F)on3)o2)C[C@@H]1c1ccccc1 [Example 2-371] |
| – | – | – | < 100 | ≥ 1000 | < 100 | CN(C)C(=O)CSCC1(c2ccccc2)CC1(NS(=O)(=O)c1ccc(-c2ccc(Cl)cc2)s1)C(=O)O (stereo not drawn) [Example 2-357] |
| – | – | – | < 1000 | ≥ 1000 | < 100 | CC1[C@H](c2ccccc2)[C@]1(NS(=O)(=O)N1CCN(c2ccc(Cl)c(F)c2)CC1)C(=O)O (stereo partly drawn) [Example 2-459] |
| – | – | – | < 100 | < 1000 | < 100 | C[C@]1(c2ccccc2)C[C@@]1(NS(=O)(=O)c1ccc2c(c1)Cc1cc(Cl)ccc1-2)C(=O)O [Example 2-568] |
